Reference: patent publication US12123010B2, “Plants having increased tolerance to herbicides” (BASF SE, priority 2017, dated 2024)
pIC50: −log10 of the molar value. Values joined by “and” are separate entries in the source; they are usually repeats but may differ in a detail not shown here. Equal values may be shown once.

Tests used:
[1] = target: Wild Type PPO Enzyme (Amaranthus PPO2, SEQ ID NO: 1) (Amaranthus tuberculatus, UniProt Q0NZW9); experiment: PPO enzyme assay (recombinant), wild type; type: biochemical
[2] = tested on: Variant PPO Enzyme R128A, F420V (Amaranthus PPO2); experiment: biochemical; type: biochemical; conditions: variant R128A, F420V vs wild type
[3] = tested on: Variant PPO Enzyme R128A, F420M (Amaranthus PPO2); type: biochemical; conditions: variant R128A, F420M vs wild type
[4] = tested on: Variant PPO Enzyme L397Q, F420V (Amaranthus PPO2); type: biochemical; conditions: variant L397Q, F420V vs wild type
[5] = tested on: Variant PPO Enzyme L397Q, F420M (Amaranthus PPO2); type: biochemical; conditions: variant L397Q, F420M vs wild type
[6] = tested on: Variant PPO Enzyme L397Q (Amaranthus PPO2); type: biochemical; conditions: variant L397Q vs wild type
[7] = tested on: Variant PPO Enzyme F420V (Amaranthus PPO2); type: biochemical; conditions: variant F420V vs wild type
[8] = tested on: Variant PPO Enzyme F420M (Amaranthus PPO2); experiment: biochemical; type: biochemical; conditions: variant F420M vs wild type
[9] = tested on: Transgenic T2 Arabidopsis plants harboring PPO inhibitor tolerance trait; experiment: Lab based germination assay in 48-well plates (Table i); type: in vivo, Arabidopsis thaliana; conditions: construct AMATU_PPO2_TP_hemG (Escherichia coli); in comparison to wild type plants
[10] = tested on: Transgenic T2 Arabidopsis plants and ARBTH WT MC24 non-transgenic; experiment: Greenhouse post spray test, injury 14 DAT (Tables ii, iii); type: in vivo, Arabidopsis thaliana; conditions: Arabidopsis thaliana, 336 h;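 note: value is percent injury to the sprayed plants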
[11] = tested on: Transgenic T2 or T3 Soybean plants harbouring PPO inhibitor tolerance trait; experiment: Soybean Trial, post spray, injury score 14 DAT; type: in vivo
Description: Soybean cv Jake is transformed as previously described by Siminszky et al., Phytochem Rev. 5:445-458 (2006). After regeneration, transformants are transplanted to soil in small pots, placed in growth chambers (16 hr day/8 hr night; 25° C. day/23° C. night; 65% relative humidity; 130-150 microE m-2 s-1) and subsequently tested for the presence of the T-DNA via Taqman analysis. After a few weeks, healthy, transgenic positive, single copy events are transplanted to larger pots and allowed to grow in the growth chamber. An optimal shoot for cutting is about 3-4 inches tall, with at least two nodes present. Each cutting is taken from the original transformant (mother plant) and dipped into rooting hormone powder (indole-3-butyric acid, IBA). The cutting is then placed in oasis wedges inside a bio-dome. The mother plant is taken to maturity in the greenhouse and harvested for seed. Wild type cuttings are also taken simultaneously to serve as negative controls. The cuttings are kept in the bio-dome for 5-7 days and then transplanted to 3 inch pots and then acclimated in the growth chamber for two more days. Subsequently, the cuttings are transferred to the greenhouse, acclimated for approximately 4 days prior to spray. T0 or 2-week old T1 plants are sprayed with a treatment of the uracilpyridines as disclosed SUPRA and photosynthesis inhibitor diuron as negative control. Herbicide injury evaluations are taken at 2, 7, 14 and 21 days after treatment.
Transgenic T2 or T3 Soybean plants harbouring PPO inhibitor tolerance trait, were sprayed post with the indicated amount of uracilpyridine+1% (v/v) MSO. Evaluation performed 14 Days After Treatment (DAT) and shown as injury (0-9) relative to non-transgenic treated plants. Injury Scale: 0-9, 0=no imjury, 9=maximum injury. Note: segregating lines.

Sequence of Wild Type PPO Enzyme (Amaranthus PPO2, SEQ ID NO: 1) (Q0NZW9 1-534): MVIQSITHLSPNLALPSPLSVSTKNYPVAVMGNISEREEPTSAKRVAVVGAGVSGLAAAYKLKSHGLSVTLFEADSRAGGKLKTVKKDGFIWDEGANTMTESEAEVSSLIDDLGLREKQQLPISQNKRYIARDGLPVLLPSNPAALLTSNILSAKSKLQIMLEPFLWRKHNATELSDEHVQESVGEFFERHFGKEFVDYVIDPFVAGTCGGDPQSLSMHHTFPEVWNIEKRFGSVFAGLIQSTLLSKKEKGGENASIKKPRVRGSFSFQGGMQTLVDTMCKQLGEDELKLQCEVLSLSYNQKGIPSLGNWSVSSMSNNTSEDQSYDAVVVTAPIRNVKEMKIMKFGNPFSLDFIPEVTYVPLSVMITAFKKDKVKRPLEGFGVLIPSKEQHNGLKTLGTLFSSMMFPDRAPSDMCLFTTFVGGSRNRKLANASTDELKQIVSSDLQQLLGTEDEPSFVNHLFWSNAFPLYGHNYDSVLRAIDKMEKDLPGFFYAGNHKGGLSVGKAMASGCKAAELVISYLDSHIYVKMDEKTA

CCOC(=O)COc1ncccc1Oc1nc(-n2c(=O)cc(C(F)(F)F)n(C)c2=O)c(F)cc1Cl [Uracilpyridine 2, ethyl 2-[[3-[[3-chloro-5-fluoro-6-[3-methyl-2,6-dioxo-4-(trifluoromethyl)pyrimidin-1-yl]-2-pyridyl]oxy]-2-pyridyl]oxy]acetate]
pIC50 [1]: 9.73
Tolerance Factor (R/S) [2]: 796 and 1105
Tolerance Factor (R/S) [3]: 521
Tolerance Factor (R/S) [4]: 13678
Tolerance Factor (R/S) [5]: 4843
Tolerance Factor (R/S) [6]: 7
Tolerance Factor (R/S) [7]: 567
Tolerance Factor (R/S) [8]: 244 and 415
Tolerance Factor [9]: 6400
pest or weed control at 50 g/ha ([10]; Table ii, ALOMY_PPO2_R137L_F438V event F, 50 g ai/ha): 18%
pest or weed control at 100 g/ha ([10]; Table ii, ALOMY_PPO2_R137L_F438V event F, 100 g ai/ha): 18%
pest or weed control at 200 g/ha ([10]; Table ii, ALOMY_PPO2_R137L_F438V event F, 200 g ai/ha): 23%
pest or weed control at 50 g/ha ([10]; Table ii, ALOMY_PPO2_R137L_F438V event G, 50 g ai/ha): 0%
pest or weed control at 100 g/ha ([10]; Table ii, ALOMY_PPO2_R137L_F438V event G, 100 g ai/ha): 10%
pest or weed control at 200 g/ha ([10]; Table ii, ALOMY_PPO2_R137L_F438V event G, 200 g ai/ha): 20%
pest or weed control at 50 g/ha ([10]; Table ii, ALOMY_PPO2_TP_AMATU_PPO2_R128M_F420I event R, 50 g ai/ha): 45%
pest or weed control at 100 g/ha ([10]; Table ii, ALOMY_PPO2_TP_AMATU_PPO2_R128M_F420I event R, 100 g ai/ha): 45%
pest or weed control at 200 g/ha ([10]; Table ii, ALOMY_PPO2_TP_AMATU_PPO2_R128M_F420I event R, 200 g ai/ha): 75%
pest or weed control at 50 g/ha ([10]; Table ii, AMATU_PPO2_R128A_F420M event Q, 50 g ai/ha): 10%
pest or weed control at 100 g/ha ([10]; Table ii, AMATU_PPO2_R128A_F420M event Q, 100 g ai/ha): 15%
pest or weed control at 200 g/ha ([10]; Table ii, AMATU_PPO2_R128A_F420M event Q, 200 g ai/ha): 65%
pest or weed control at 50 g/ha ([10]; Table ii, AMATU_PPO2_R128M_F420I event K, 50 g ai/ha): 18%
pest or weed control at 100 g/ha ([10]; Table ii, AMATU_PPO2_R128M_F420I event K, 100 g ai/ha): 58%
pest or weed control at 200 g/ha ([10]; Table ii, AMATU_PPO2_R128M_F420I event K, 200 g ai/ha): 70%
pest or weed control at 100 g/ha ([10]; Table ii, AMATU_PPO2_TP_hemG event R, 100 g ai/ha): 40%
pest or weed control at 200 g/ha ([10]; Table ii, AMATU_PPO2_TP_hemG event R, 200 g ai/ha): 35%
pest or weed control at 1 g/ha ([10]; Table ii, AMATU_PPO2_WT event Q, 1 g ai/ha): 23%
pest or weed control at 5 g/ha ([10]; Table ii, AMATU_PPO2_WT event Q, 5 g ai/ha): 100%
pest or weed control at 10 g/ha ([10]; Table ii, AMATU_PPO2_WT event Q, 10 g ai/ha): 100%
pest or weed control at 30 g/ha ([10]; Table ii, AMATU_PPO2_WT event Q, 30 g ai/ha): 100%
pest or weed control at 1 g/ha ([10]; Table ii, ARBTH WT MC24 non-transgenic, 1 g ai/ha + 1% MSO): 100%
pest or weed control at 5 g/ha ([10]; Table ii, ARBTH WT MC24 non-transgenic, 5 g ai/ha + 1% MSO): 100%
pest or weed control at 10 g/ha ([10]; Table ii, ARBTH WT MC24 non-transgenic, 10 g ai/ha + 1% MSO): 100%
pest or weed control at 30 g/ha ([10]; Table ii, ARBTH WT MC24 non-transgenic, 30 g ai/ha + 1% MSO): 100%
pest or weed control at 50 g/ha ([10]; Table ii, ARBTH WT MC24 non-transgenic, 50 g ai/ha + 1% MSO): 100%
pest or weed control at 80 g/ha ([10]; Table ii, ARBTH WT MC24 non-transgenic, 80 g ai/ha + 1% MSO): 100%
pest or weed control at 100 g/ha ([10]; Table ii, ARBTH WT MC24 non-transgenic, 100 g ai/ha + 1% MSO): 100%
pest or weed control at 200 g/ha ([10]; Table ii, ARBTH WT MC24 non-transgenic, 200 g ai/ha + 1% MSO): 100%
pest or weed control at 30 g/ha ([10]; Table ii, ARBTH_PPO1_S305L_Y426M event O, 30 g ai/ha): 33%
pest or weed control at 50 g/ha ([10]; Table ii, ARBTH_PPO1_S305L_Y426M event O, 50 g ai/ha as printed (row position suggests 5)): 0%
pest or weed control at 80 g/ha ([10]; Table ii, ARBTH_PPO1_S305L_Y426M event O, 80 g ai/ha): 45%
pest or weed control at 100 g/ha ([10]; Table ii, ARBTH_PPO1_S305L_Y426M event O, 100 g ai/ha as printed (row position suggests 10)): 0%
pest or weed control at 1 g/ha ([10]; Table ii, ARBTH_PPO1_WT event Q, 1 g ai/ha): 15%
pest or weed control at 5 g/ha ([10]; Table ii, ARBTH_PPO1_WT event Q, 5 g ai/ha): 100%
pest or weed control at 10 g/ha ([10]; Table ii, ARBTH_PPO1_WT event Q, 10 g ai/ha): 100%
pest or weed control at 30 g/ha ([10]; Table ii, ARBTH_PPO1_WT event Q, 30 g ai/ha): 100%
pest or weed control at 50 g/ha ([10]; Table iii, ALOMY_PPO2_R137L_F438M (unnamed lines), 50 g ai/ha): 0%
pest or weed control at 100 g/ha ([10]; Table iii, ALOMY_PPO2_R137L_F438M (unnamed lines), 100 g ai/ha): 0%
pest or weed control at 50 g/ha ([10]; Table iii, ALOMY_PPO2_R137L_F438V (unnamed lines), 50 g ai/ha): 0%
pest or weed control at 100 g/ha ([10]; Table iii, ALOMY_PPO2_R137L_F438V (unnamed lines), 100 g ai/ha): 0%
pest or weed control at 50 g/ha ([10]; Table iii, AMATU_PPO2_L397E_F420M (unnamed lines), 50 g ai/ha): 0%
pest or weed control at 100 g/ha ([10]; Table iii, AMATU_PPO2_L397E_F420V (unnamed lines), 100 g ai/ha): 0%
pest or weed control at 100 g/ha ([10]; Table iii, AMATU_PPO2_L397Q_F420V (unnamed lines), 100 g ai/ha): 80%
pest or weed control at 50 g/ha ([10]; Table iii, ARBTH WT MC 24 (non-transgenic), 50 g ai/ha + 1% MSO): 100%
pest or weed control at 100 g/ha ([10]; Table iii, ARBTH WT MC 24 (non-transgenic), 100 g ai/ha + 1% MSO): 100%
injury (0-9) ([11]; L397E, F420M Event 2, 25 g/ha + 1% (v/v) MSO): 0 (No Injury)
injury (0-9) ([11]; L397E, F420M Event 2, 50 g/ha + 1% (v/v) MSO): 0 (No Injury)
injury (0-9) ([11]; L397E, F420M Event 2, 100 g/ha + 1% (v/v) MSO): 0 (No Injury)
injury (0-9) ([11]; L397E, F420V Event 1, 25 g/ha + 1% (v/v) MSO): 0 (No Injury)
injury (0-9) ([11]; L397E, F420V Event 1, 50 g/ha + 1% (v/v) MSO): 0 (No Injury)
injury (0-9) ([11]; L397E, F420V Event 1, 100 g/ha + 1% (v/v) MSO): 0 (No Injury)
injury (0-9) ([11]; L397Q, F420M Event 3, 25 g/ha + 1% (v/v) MSO): 0 (No Injury) and 3
injury (0-9) ([11]; L397Q, F420M Event 3, 50 g/ha + 1% (v/v) MSO): 3
injury (0-9) ([11]; L397Q, F420M Event 3, 100 g/ha + 1% (v/v) MSO): 3 and 2
